Data reported in patent US20220119354A1, “DIAMINO-SUBSTITUTED PYRIDINES AND PYRIMIDINES AS HERBICIDES” (FMC Corporation, priority 2019, published 2022).

Legend:
Type in all cases: in vivo
[1] = test system: barnyardgrass (Echinochloa crus-galli); test: Test A preemergence, barnyardgrass; details: 0 to 100 scale; for Barnyardgrass plant response rating: 0 is no effect, 100 is complete control
How it was run: (§1)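 Compound, in a non-phytotoxic solvent blend containing surfactant, is sprayed onto soil immediately after sowing or onto young plants (one- to two-leaf, 2–10 cm). After roughly 10 d under greenhouse conditions, injury is judged by eye relative to untreated plants on a 0–100 control scale.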

kochia (Kochia scoparia) [2] = test: Test A preemergence, kochia; details: 0 to 100 scale; for Kochia plant response rating: 0 is no effect, 100 is complete control
How it was run: as §1

[3] = test system: ragweed (common ragweed, Ambrosia elatior); test: Test A preemergence, ragweed; details: 0 to 100 scale; for Ragweed plant response rating: 0 is no effect, 100 is complete control
How it was run: as §1

[4] = test system: ryegrass, Italian (Lolium multiflorum); test: Test A preemergence, Italian ryegrass; details: 0 to 100 scale; for Ryegrass, Italian plant response rating: 0 is no effect, 100 is complete control
How it was run: as §1

[5] = test system: foxtail, giant (Setaria faberii); test: Test A preemergence, giant foxtail; details: 0 to 100 scale; for Foxtail, Giant plant response rating: 0 is no effect, 100 is complete control
How it was run: as §1

[6] = test system: pigweed (Amaranthus retroflexus); test: Test A preemergence, pigweed; details: 0 to 100 scale; for Pigweed plant response rating: 0 is no effect, 100 is complete control
How it was run: as §1

[7] = test system: barnyardgrass (Echinochloa crus-galli); test: Test A postemergence, barnyardgrass; details: 0 to 100 scale
How it was run: as §1

kochia (Kochia scoparia) [8] = test: Test A postemergence, kochia; details: 0 to 100 scale
How it was run: as §1

[9] = test system: ragweed (common ragweed, Ambrosia elatior); test: Test A postemergence, ragweed; details: 0 to 100 scale
How it was run: as §1

[10] = test system: ryegrass, Italian (Lolium multiflorum); test: Test A postemergence, Italian ryegrass; details: 0 to 100 scale
How it was run: as §1

[11] = test system: foxtail, giant (Setaria faberii); test: Test A postemergence, giant foxtail; details: 0 to 100 scale
How it was run: as §1

[12] = test system: pigweed (Amaranthus retroflexus); test: Test A postemergence, pigweed; details: 0 to 100 scale
How it was run: as §1

[13] = test system: wheat (Triticum aestivum); test: Test A postemergence, wheat; details: 0 to 100 scale
How it was run: as §1

corn (Zea mays) = test: Test A postemergence, corn; details: 0 to 100 scale
How it was run: as §1

[14] = test system: blackgrass (Alopecurus myosuroides); test: Test A postemergence, blackgrass; details: 0 to 100 scale
How it was run: as §1

[15] = test system: galium (catchweed bedstraw, Galium aparine); test: Test A postemergence, galium; details: 0 to 100 scale
How it was run: as §1

rice (Oryza sativa) = test: Test B flooded paddy test, rice; details: Flood, 250 g ai/ha, applied to paddy water, 2-leaf stage, visual evaluation after 13 to 15 d
How it was run: (§2)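 Rating: 0 = no effect, 100 = complete control, visual, relative to untreated plants. Conditions: 2-leaf stage, 3 cm flood kept constant, compound put directly into water, 13–15 d greenhouse.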

[16] = test system: sedge, umbrella (small-flower umbrella sedge, Cyperus difformis); test: Test B flooded paddy test, umbrella sedge; details: Flood, 250 g ai/ha, applied to paddy water, 2-leaf stage, visual evaluation after 13 to 15 d
How it was run: as §2

[17] = test system: ducksalad (Heteranthera limosa); test: Test B flooded paddy test, ducksalad; details: Flood, 250 g ai/ha, applied to paddy water, 2-leaf stage, visual evaluation after 13 to 15 d
How it was run: as §2

[18] = test system: barnyardgrass (Echinochloa crus-galli); test: Test B flooded paddy test, barnyardgrass; details: Flood, 250 g ai/ha, applied to paddy water, 2-leaf stage, visual evaluation after 13 to 15 d
How it was run: as §2

[19] = 125 g ai/ha, 0 no effect, 100 complete control
[20] = 500 g ai/ha, 0 no effect, 100 complete control

CC(COc1cc(F)cc(F)c1)Nc1ncc(C(F)(F)F)c(N)n1 (stereo not drawn) [Compound 33]
20: Pigweed plant response rating ([6]; 125 g ai/ha) | Plant response rating, Galium ([15]; 125 g ai/ha)
25: Plant response rating, Sedge, Umbrella (0 to 100 scale, 0 is no effect, 100 is complete control) [16]
70: Plant response rating, Ducksalad (0 to 100 scale, 0 is no effect, 100 is complete control) [17]
50: Plant response rating, Pigweed ([6]; 500 g ai/ha)
0: Barnyardgrass plant response rating ([1]; 125 g ai/ha) | Plant response rating, Barnyardgrass ([1]; 500 g ai/ha) | Kochia plant response rating (kochia (Kochia scoparia) [2]; 125 g ai/ha) | Ragweed plant response rating ([3]; 125 g ai/ha) | Plant response rating, Ragweed ([3]; 500 g ai/ha) | Ryegrass, Italian plant response rating ([4]; 125 g ai/ha) | Plant response rating, Ryegrass, Italian ([4]; 500 g ai/ha) | Foxtail, Giant plant response rating ([5]; 125 g ai/ha) | Plant response rating, Barnyardgrass ([7]; 125 g ai/ha) | Plant response rating, Barnyardgrass ([7]; 500 g ai/ha) | Plant response rating, Kochia (kochia (Kochia scoparia) [8]; 125 g ai/ha) | Plant response rating, Ragweed ([9]; 125 g ai/ha) | Plant response rating, Ragweed ([9]; 500 g ai/ha) | Plant response rating, Ryegrass, Italian ([10]; 125 g ai/ha) | Plant response rating, Ryegrass, Italian ([10]; 500 g ai/ha) | Plant response rating, Foxtail, Giant ([11]; 125 g ai/ha) | Plant response rating, Foxtail, Giant ([11]; 500 g ai/ha) | Plant response rating, Pigweed ([12]; 125 g ai/ha) | Plant response rating, Wheat ([13]; 125 g ai/ha) | Plant response rating, Wheat ([13]; 500 g ai/ha) | Plant response rating, Corn (corn (Zea mays); 125 g ai/ha) | Plant response rating, Corn (corn (Zea mays); 500 g ai/ha) | Plant response rating, Blackgrass ([14]; 125 g ai/ha) | Plant response rating, Blackgrass ([14]; 500 g ai/ha) | Plant response rating, Rice (0 to 100 scale, 0 is no effect, 100 is complete control) (rice (Oryza sativa)) | Plant response rating, Barnyardgrass (0 to 100 scale, 0 is no effect, 100 is complete control) [18]
30: Plant response rating, Kochia (kochia (Kochia scoparia) [2]; 500 g ai/ha) | Plant response rating, Foxtail, Giant ([5]; 500 g ai/ha) | Plant response rating, Kochia (kochia (Kochia scoparia) [8]; 500 g ai/ha) | Plant response rating, Pigweed ([12]; 500 g ai/ha)
60: Plant response rating, Galium ([15]; 500 g ai/ha)

C[C@H](Nc1ncc(C(F)(F)F)c(N)n1)c1cc2cccc(F)c2o1 [Compound 72]
50: Plant response rating, Pigweed [12, 20]
0: Barnyardgrass plant response rating ([1]; 125 g ai/ha) | Barnyardgrass plant response rating ([1]; 500 g ai/ha) | Kochia plant response rating (kochia (Kochia scoparia) [2]; 125 g ai/ha) | Kochia plant response rating (kochia (Kochia scoparia) [2]; 500 g ai/ha) | Ragweed plant response rating ([3]; 125 g ai/ha) | Ragweed plant response rating ([3]; 500 g ai/ha) | Ryegrass, Italian plant response rating ([4]; 125 g ai/ha) | Ryegrass, Italian plant response rating ([4]; 500 g ai/ha) | Foxtail, Giant plant response rating ([5]; 125 g ai/ha) | Foxtail, Giant plant response rating ([5]; 500 g ai/ha) | Pigweed plant response rating ([6]; 125 g ai/ha) | Plant response rating, Barnyardgrass [7, 19] | Plant response rating, Barnyardgrass [7, 20] | Plant response rating, Kochia (kochia (Kochia scoparia) [8]; [19]) | Plant response rating, Ragweed [9, 19] | Plant response rating, Ryegrass, Italian [10, 19] | Plant response rating, Ryegrass, Italian [10, 20] | Plant response rating, Foxtail, Giant [11, 19] | Plant response rating, Foxtail, Giant [11, 20] | Plant response rating, Wheat [13, 19] | Plant response rating, Wheat [13, 20] | Plant response rating, Corn (corn (Zea mays); [19]) | Plant response rating, Corn (corn (Zea mays); [20]) | Plant response rating, Blackgrass [14, 19] | Plant response rating, Blackgrass [14, 20] | Plant response rating, Galium [15, 19] | Plant response rating, Rice (0 to 100 scale, 0 is no effect, 100 is complete control) (rice (Oryza sativa)) | Plant response rating, Sedge, Umbrella (0 to 100 scale, 0 is no effect, 100 is complete control) [16] | Plant response rating, Ducksalad (0 to 100 scale, 0 is no effect, 100 is complete control) [17] | Plant response rating, Barnyardgrass (0 to 100 scale, 0 is no effect, 100 is complete control) [18]
40: Plant response rating, Pigweed [12, 19] | Plant response rating, Galium [15, 20]
30: Plant response rating, Kochia (kochia (Kochia scoparia) [8]; [20]) | Plant response rating, Ragweed [9, 20]
80: Pigweed plant response rating ([6]; 500 g ai/ha)

CCC(Nc1ncc(C#N)c(N)n1)c1cc2ccccc2o1 (racemic) [Compound 20]
60: Plant response rating, Ragweed ([3]; 500 g ai/ha) | Plant response rating, Pigweed ([12]; 125 g ai/ha)
30: Plant response rating, Kochia (kochia (Kochia scoparia) [2]; 500 g ai/ha) | Plant response rating, Ryegrass, Italian ([4]; 125 g ai/ha) | Plant response rating, Blackgrass ([14]; 125 g ai/ha) | Plant response rating, Galium ([15]; 125 g ai/ha)
10: Plant response rating, Foxtail, Giant ([11]; 500 g ai/ha) | Plant response rating, Wheat ([13]; 500 g ai/ha)
20: Plant response rating, Ragweed ([9]; 125 g ai/ha) | Plant response rating, Corn (corn (Zea mays); 500 g ai/ha)
40: Plant response rating, Barnyardgrass ([1]; 125 g ai/ha) | Plant response rating, Ragweed ([3]; 125 g ai/ha) | Plant response rating, Barnyardgrass ([7]; 500 g ai/ha)
50: Plant response rating, Barnyardgrass ([1]; 500 g ai/ha) | Plant response rating, Pigweed ([6]; 125 g ai/ha) | Plant response rating, Kochia (kochia (Kochia scoparia) [8]; 125 g ai/ha)
0: Plant response rating, Kochia (kochia (Kochia scoparia) [2]; 125 g ai/ha) | Plant response rating, Foxtail, Giant ([5]; 125 g ai/ha) | Plant response rating, Barnyardgrass ([7]; 125 g ai/ha) | Plant response rating, Ryegrass, Italian ([10]; 125 g ai/ha) | Plant response rating, Ryegrass, Italian ([10]; 500 g ai/ha) | Plant response rating, Foxtail, Giant ([11]; 125 g ai/ha) | Plant response rating, Wheat ([13]; 125 g ai/ha) | Plant response rating, Corn (corn (Zea mays); 125 g ai/ha) | Plant response rating, Rice (0 to 100 scale, 0 is no effect, 100 is complete control) (rice (Oryza sativa)) | Plant response rating, Sedge, Umbrella (0 to 100 scale, 0 is no effect, 100 is complete control) [16] | Plant response rating, Ducksalad (0 to 100 scale, 0 is no effect, 100 is complete control) [17] | Plant response rating, Barnyardgrass (0 to 100 scale, 0 is no effect, 100 is complete control) [18]
70: Plant response rating, Ragweed ([9]; 500 g ai/ha)
80: Plant response rating, Foxtail, Giant ([5]; 500 g ai/ha) | Plant response rating, Galium ([15]; 500 g ai/ha)
90: Plant response rating, Ryegrass, Italian ([4]; 500 g ai/ha) | Plant response rating, Kochia (kochia (Kochia scoparia) [8]; 500 g ai/ha) | Plant response rating, Pigweed ([12]; 500 g ai/ha)
100: Plant response rating, Pigweed ([6]; 500 g ai/ha) | Plant response rating, Blackgrass ([14]; 500 g ai/ha)
